Here are results for two compounds from patent US20120321896A1, “RASAGILINE MESYLATE HAVING LARGE PARTICLE SIZE AND A PROCESS FOR PREPARATION THEREOF” (priority 2010, published 2012).

For the series the following is noted: volume distribution; average of three measurements; recrystallised from isopropyl alcohol, gradual cooling in around 15 hours without stirring, no milling. From the text: Measurement and characterization of particle size distributions is known in the art. It is possible to compare samples of particulate rasagiline mesylate on the basis of individual points on a cumulative particle size distribution curve. The measurements are represented as d(0.X)-Y (where X and Y are Arabic numerals), each “d” describing an individual point on a cumulative PSD curve. The number “X” represents the percentage (number, volume, or weight) of particles in the population having a nominal size up to and including “Y”. Thus, D90 or d(0.9) of greater than 255 μm is a characteristic of a PSD in which 90% (number, volume, or weight) of the particles in a population have a nominal size of about 255 μm or more (at least some particles having a nominal dimension of 255 μm) and so forth. When PSD is determined by the well-know laser-diffraction method described herein, the D90 measurement depicts a volume average.
Particle Size Distribution (PSD) is determined by laser diffraction in Malvern master Sizer 2000 equipment or its equivalent:
Spread sufficient powder in the dry powder holder of sampler holding unit and close it by the sliding cover. Operate the instrument for particle size analysis.
Report the average of three measurements.

The structures appear in SMILES notation. Structures can show the parent of a compound that is named as a salt.

With `C#CCN[C@@H]1CCc2ccccc21` [Example-1, Rasagiline mesylate], the “Particle size data (D90)” value was determined as 292.2 μm.

With `C#CCN[C@@H]1CCc2ccccc21` [Example-2, Rasagiline mesylate], the “Particle size data (D90)” value was 337.1 μm.
